US5705649A, “Protein staining compositions and methods” (Promega Corporation, priority 1995, dated 1998)

Experiments:
[1] = test system: Promega Mid-Range Molecular Weight Markers; experiment: Enhancement of staining of proteins in SDS-PAGE gels in 5% acetic acid; conditions: 5% acetic acid
Description: The gels described above were placed in 5% acetic acid following the termination of the electrophoretic separation. Within one to two minutes the gel developed a light green background but the protein bands dramatically darkened to a green color. […] Again, the color of the background darkened to a greater degree when greater concentrations of dye were used.
The gels above (from Example 7) were placed in 5% acetic acid following termination of the electrophoretic separation. Within 1-2 minutes, all the gels turned light green and the color of the stained bands intensified such that all proteins were visible--even in the lane containing 0.25 μg protein/band.
The gels above (Example 9) were placed in 5% acetic acid following termination of the electrophoretic separation. Within 1-2 minutes, all the gels turned light green and the color of the stained bands intensified such that all proteins were visible--even in the lanes containing 0.25 μg protein/band.

[2] = Spectral analyses of Coomassie Blue R and Promega Green 1, 2, 3; type: physicochemical; conditions: diluted 1:500 in 1:1 methanol:water
Description: The three solutions of Promega Green 1, 2, and 3, from examples 1, 2 and 3 respectively, were diluted approximately 500 fold into a 1:1 solution of methanol:water. The spectra of the resulting solutions and of a 12 μg/ml solution of Coomassie Blue R (in 1:1 methanol:water) were recorded from 700 to 340 nm versus 1:1 methanol:water. […] All of the derivatives gave essentially identical spectra; however, the maximal absorbance of the diluted Promega Green i was about twice that seen for the other derivatives. The derivatives had two peak absorptions in the region of the spectrum scanned, a major peak at around 630 nm and a second peak at around 440 nm. The following absorbances were recorded at the peaks near 630 nm for the three Promega Green dye solutions (diluted 1:500 in 1:1 methanol:water): […]

[3] = test system: Promega Mid-Range Molecular Weight Markers; experiment: Detection of proteins during SDS-PAGE electrophoresis (dye in cathode buffer); conditions: 10% SDS-PAGE, dye in cathode buffer, white plastic card behind gel
Text: Solutions for the formation and electrophoresis of proteins were made according to the instructions given in Experiments in Gene Fusions, Silhavy, Berman, Enquist, Cold Spring Harbor Laboratory Press, Cold Spring Harbor, N.Y. with the following changes:
a) The SDS concentration in the upper and lower gel buffer components were reduced to result in a 0.05% final SDS concentration in the gel. Thus, the composition of 4× upper gel buffer was 0.5M Tris-HCl, pH 6.8, 0.2 % (w/v) sodium dodecylsulfate (SDS) and the composition of 4× lower gel buffer was 1.5M Tris-HCl, pHS.8, 0.2 % (w/v) SDS.
b) The SDS concentration in the electrophoretic (electrode) buffer was reduced to 0.04% final concentration. Thus, 4× electrode (anode or cathode) buffer was made by dissolving 60 g Tris base, 288 g glycine, and 8 g SDS dissolved in water and then diluting with water to 5 liters. Another name sometimes used for "electrode" buffer is "running" buffer.
c) The SDS concentration in the 2× sample buffer was reduced to 1% final SDS concentration. Thus, 2× sample buffer was made by mixing 0.5 ml of betamercaptoethanol, 0.25 ml of 0.1% (w/v) bromophenol blue, 1 ml of 10 % (w/v) SDS, 3 ml of water, and 5.3 ml of 2× glycerol buffer. 2× glycerol buffer is made by mixing 12.5 ml of 4× upper gel buffer and 20 ml of glycerol and diluting the resulting solution to 60 ml with water. Another name sometimes used for "sample" buffer is "loading" buffer.
d) Electrophoresis was performed using a BIO-RAD miniprotein II electrophoresis apparatus and gels were poured such that i cm of space was present between the bottom of the loading wells and the separating gel.
In other electrophoresis experiments reported in this application, the buffers used were as described above in this example. In some cases, as in this example, where preparation of a solution of dye in 150 ml of cathode (or electrode) buffer is specified, an amount of stock solution of a dye was first added to 150 ml of cathode buffer and then 125 ml of the resulting solution was used to fill the cathode buffer chamber (which holds 125 ml) in the electrophoresis apparatus. In other cases, where addition of stock solution of dye to the cathode buffer is specified without reference to the volume of cathode buffer or with reference to such volume being "125 ml," the stock solution was added directly to 125 ml of cathode buffer already in the cathode buffer chamber.
The samples used were prepared with Promega Mid-Range Molecular Weight Markers solution (Promega Corp., Madison, Wis., USA, Catalog No. V5231) (referred to hereinafter as "Promega Mid-Range [Molecular Weight] Markers or Standards") diluted into Sample Buffer. […]

[4] = test system: Promega Mid Range Molecular Weight Standards; experiment: Detection of denatured protein with dodecylamino and octylamino derivatives of fluorescein isothiocyanate
Description: A fifteen well, 12% gel was made as described in example 5 and was loaded with diluted Promega Mid Range Molecular Weight Standards to produce lanes containing samples having 200, 100, 80, 60, 40, 20 and 10 ng of protein per band. The gel was run as described in example 5 except that Promega Green 1 was not added to the cathode buffer. After electrophoresis, the gel was cut between lanes to produce gel segments containing fractionated protein samples at each of the concentrations listed above and these were placed in 30% methanol for 25-30 min at room temperature. The stock stain solutions of Example 33 were then diluted into distilled water at a concentration of 0.5% (v/v), and 50 ml of these solutions were used to stain the gels. After 1 hr incubation, the gels were visualized and photographed using a transilluminator. […] The gels were then placed in 5% methanol and allowed to destain overnight.
Gels were made and loaded as described in Example 34. The gels were incubated in 30% methanol for 15 min to fix the protein and then were incubated in 50 ml of a solution of the stains of Example 38 made by dilution of the stock stain solutions described in Example 38 to a concentration of 0.5% (v/v) in distilled water. After incubation in the staining solution for 1 hr, the gels were placed in 5% methanol and were visualized and photographed after 30 min by placement of the gel segment on a transilluminator. Photography of the segments was performed as described in Example 27. At this point, protein bands were visualized in the gel stained with the dodecylamino derivative at a concentration as low as 80 ng of protein per band.
The gel segments were then returned to the destaining solutions and allowed to incubate overnight. The segment of the gel stained with the octylamino derivative was transferred to a solution of 30% methanol following the overnight incubation and was revisualized and rephotographed after 1 hr of incubation in this methanol solution. At this point, protein was detected at fluorescently labeled bands to a concentration as low as 40 ng of protein per band.

[5] = 0.5% (v/v) stain 1 hr, 5% methanol 30 min

## CCCCCCCCCCCC(=O)N(c1ccc(OCC)cc1)c1ccc(C(=C2C=CC(=[N+](CC)Cc3cccc(S(=O)(=O)[O-])c3)C=C2)c2ccc(N(CC)Cc3cccc(S(=O)(=O)O)c3)cc2)cc1 [Promega Green 3]
[1]; 1-2 minutes
  lowest protein amount per band visible after enhancement: 0.25 µg
[1]; overnight
  staining after overnight incubation: darker background color
[2]
  Absorbance at the peak near 630 nm: 0.83
[3]
  lowest protein amount per band visible while the gel was running: 1.0 µg

## CCCCCCCCCCCCNC(=S)Nc1ccc(-c2c3ccc(=O)cc-3oc3cc(O)ccc23)c(C(=O)O)c1 [dodecylamino derivative]
[4]; [5]
  lowest protein per band visualized: 80 ng

## CCCCCCCCNC(=S)Nc1ccc(-c2c3ccc(=O)cc-3oc3cc(O)ccc23)c(C(=O)O)c1 [octylamino derivative]
[4]; [5]
  background / visualization of bands: high background fluorescence which prevented visualization of the protein bands
[4]; after overnight destaining, then 30% methanol 1 hr
  lowest protein per band detected: 40 ng
